Laboratory results: US20150374646A1, “TREATMENT OF CANCER AND OTHER CONDITIONS USING A TRANSCRIPTION FACTOR MODULATOR” (C & C BIOPHARMA, LLC, priority 2013, published 2015)
pIC50: −log10 of the molar value.

Key:
Assay in all cases: Cancer cell line growth inhibition, CellTiter-Glo (Example 3)
Format in all cases: cell-based
[1] = tested on: OVCAR-4; conditions: Homo sapiens, Ovarian, 72 hours, read-out: growth inhibition of various human cancer cell lines
Description: (§1) YT30 was tested for growth inhibition against 67 human cancer cell lines derived from diverse tissues including the National Cancer Institute human cancer cell lines (NCI-60). […] Cells in different wells were treated with various concentrations of YT30, YT86, YT88, or YT128. […] Cell viabilities were determined by the CellTiter-Glo Luminescence Cell Viability assay kit (Promega Corporation, Madison, Wis.) according to manufacturer's protocol.

[2] = tested on: HS 578T; conditions: Homo sapiens, Breast, 72 hours, read-out: growth inhibition of various human cancer cell lines
Description: as §1

[3] = tested on: MDA-MB-435; conditions: Homo sapiens, Breast, 72 hours, read-out: growth inhibition of various human cancer cell lines
Description: as §1

[4] = tested on: Caski; conditions: Homo sapiens, Ca-Ski, Cervical, 72 hours, read-out: growth inhibition of various human cancer cell lines
Description: as §1

[5] = tested on: CCRF-CEM; conditions: Homo sapiens, Leukemia, 72 hours, read-out: growth inhibition of various human cancer cell lines
Description: as §1

[6] = tested on: SF-295; conditions: Homo sapiens, CNS, 72 hours, read-out: growth inhibition of various human cancer cell lines
Description: as §1

[7] = tested on: MDA-MB231; conditions: Homo sapiens; Breast, MDA-MB-231; 72 hours; read-out: growth inhibition of various human cancer cell lines
Description: as §1

[8] = tested on: SN12C; conditions: Homo sapiens, Renal, 72 hours, read-out: growth inhibition of various human cancer cell lines
Description: as §1

[9] = tested on: TK-10; conditions: Homo sapiens, Renal, 72 hours, read-out: growth inhibition of various human cancer cell lines
Description: as §1

[10] = tested on: OVCAR-5; conditions: Homo sapiens, Ovarian, 72 hours, read-out: growth inhibition of various human cancer cell lines
Description: as §1

[11] = tested on: MOLT-4; conditions: Homo sapiens, Leukemia, 72 hours, read-out: growth inhibition of various human cancer cell lines
Description: as §1

[12] = tested on: A498; conditions: Homo sapiens, Renal, 72 hours, read-out: growth inhibition of various human cancer cell lines
Description: as §1

[13] = tested on: SF-268; conditions: Homo sapiens, CNS, 72 hours, read-out: growth inhibition of various human cancer cell lines
Description: as §1

[14] = tested on: BT-549; conditions: Homo sapiens, Breast, 72 hours, read-out: growth inhibition of various human cancer cell lines
Description: as §1

[15] = tested on: K562; conditions: Homo sapiens, Leukemia, 72 hours, read-out: growth inhibition of various human cancer cell lines
Description: as §1

[16] = tested on: T-47D; conditions: Homo sapiens, T47D, Breast, 72 hours, read-out: growth inhibition of various human cancer cell lines
Description: as §1

[17] = tested on: MDA-MB-468; conditions: Homo sapiens, Breast, 72 hours, read-out: growth inhibition of various human cancer cell lines
Description: as §1

[18] = tested on: HeLa; conditions: Homo sapiens, Cervical, 72 hours, read-out: growth inhibition of various human cancer cell lines
Description: as §1

[19] = tested on: A549; conditions: Homo sapiens, Lung, 72 hours, read-out: growth inhibition of various human cancer cell lines
Description: as §1

[20] = tested on: MCF7; conditions: Homo sapiens, Breast, MCF-7, 72 hours, read-out: growth inhibition of various human cancer cell lines
Description: as §1

[21] = tested on: SR; conditions: Homo sapiens, Leukemia, 72 hours, read-out: growth inhibition of various human cancer cell lines
Description: as §1

[22] = tested on: HL60; conditions: Homo sapiens, HL-60, Leukemia, 72 hours, read-out: growth inhibition of various human cancer cell lines
Description: as §1

[23] = tested on: OVCAR-3; conditions: Homo sapiens, Ovarian, 72 hours, read-out: growth inhibition of various human cancer cell lines
Description: as §1

[24] = tested on: SF-539; conditions: Homo sapiens, CNS, 72 hours, read-out: growth inhibition of various human cancer cell lines
Description: as §1

[25] = tested on: UO-31; conditions: Homo sapiens, Renal, 72 hours, read-out: growth inhibition of various human cancer cell lines
Description: as §1

[26] = tested on: U251; conditions: Homo sapiens, U-251, CNS, 72 hours, read-out: growth inhibition of various human cancer cell lines
Description: as §1

[27] = tested on: SNB-19; conditions: Homo sapiens, CNS, 72 hours, read-out: growth inhibition of various human cancer cell lines
Description: as §1

[28] = tested on: siHa; conditions: Homo sapiens, Cervical, 72 hours, read-out: growth inhibition of various human cancer cell lines
Description: as §1

[29] = tested on: NCI/ADR-RES; conditions: Homo sapiens, Breast, 72 hours, read-out: growth inhibition of various human cancer cell lines
Description: as §1

[30] = tested on: SNB-75; conditions: Homo sapiens, CNS, 72 hours, read-out: growth inhibition of various human cancer cell lines
Description: as §1

[31] = tested on: DU-145; conditions: Homo sapiens, Prostate, 72 hours, read-out: growth inhibition of various human cancer cell lines
Description: as §1

[32] = tested on: 786-0; conditions: Homo sapiens, Renal, 72 hours, read-out: growth inhibition of various human cancer cell lines
Description: as §1

| SMILES | pIC50 [1] | pIC50 [2] | pIC50 [3] | pIC50 [4] | pIC50 [5] | pIC50 [6] | pIC50 [7] | pIC50 [8] | pIC50 [9] | pIC50 [10] | pIC50 [11] | pIC50 [12] | pIC50 [13] | pIC50 [14] | pIC50 [15] | pIC50 [16] | pIC50 [17] | pIC50 [18] | pIC50 [20] | pIC50 [21] | further results |
| --- | --- | --- | --- | --- | --- | --- | --- | --- | --- | --- | --- | --- | --- | --- | --- | --- | --- | --- | --- | --- | --- |
| Nc1ccccc1NC(=O)CCCCCNC(=O)c1cc2ccccc2[nH]1 [YT86] | 4.85 | 5.05 | 5.08 | 4.95 | 5.50 | 5.13 | 5.24 | 5.10 | 4.76 | 5.22 | 5.51 | 5.02 | 4.83 | 4.87 | 5.25 | 4.90 | 5.15 | 5.17 | 5.23 | 5.19 | pIC50 [19]: 4.96; pIC50 [22]: 5.32; pIC50 [23]: 5.14; pIC50 [24]: 5.11; pIC50 [25]: 5.12; pIC50 [26]: 5.35; pIC50 [27]: 4.85; pIC50 [28]: 5.06 |
| Nc1ccccc1NC(=O)CCCCCNC(=O)c1ccc(-c2ccccc2)o1 [YT88] | 4.93 | 5.25 | 5.12 | 4.85 | 5.58 | 5.17 | 5.37 | 5.14 | 4.87 | 5.25 | 5.52 | 5.02 | 4.84 | 4.98 | 5.24 | 4.82 | 5.13 | 5.22 | 5.42 | 5.23 | pIC50 [29]: 4.85; pIC50 [30]: 4.95; pIC50 [31]: 4.79; pIC50 [22]: 5.16; pIC50 [23]: 5.18; pIC50 [32]: 4.86; pIC50 [24]: 5.16; pIC50 [25]: 5.02; pIC50 [26]: 5.36; pIC50 [27]: 5.02; pIC50 [28]: 5.04 |
| Nc1ccccc1NC(=O)CCCCCCNC(=O)c1cc2ccccc2[nH]1 [YT128] | 4.87 | 5.08 | 5.01 | 4.96 | 5.37 | 5.06 | 5.17 | 5.15 | 4.92 | 5.16 | 5.29 | 5.13 | 4.87 | 5.04 | 5.30 | 4.90 | 4.95 | 5.18 | 5.07 | 5.22 | pIC50 [29]: 4.84; pIC50 [19]: 4.89; pIC50 [22]: 5.23; pIC50 [23]: 5.16; pIC50 [32]: 5.02; pIC50 [24]: 5.12; pIC50 [25]: 5.18; pIC50 [26]: 5.30; pIC50 [27]: 4.86; pIC50 [28]: 5.01 |
